# Laboratory results as given in paper PMC8445441, “Elucidating the mechanism by which synthetic helper peptides sensitize Pseudomonas aeruginosa to multiple antibiotics” (PLoS Pathogens, 2021).
# Like-named read-outs stand apart in the source and are kept apart here. Non-standard residues stand in square brackets, D forms with d. Residues, ends and D or L forms follow the SMILES beside them. No end group written: not given here. *: point of attachment. βNA = c1ccc2cc(N*)ccc2c1
# Key:
# [1] = tested on: P. aeruginosa PAO1; experiment: microbe, parasite or virus in culture; conditions: for MICa: the MIC of antibiotics: antibiotic alone
# Procedure: (§1) The MIC tests were performed in triplicate using broth microdilution in accordance with Clinical and Laboratory Standards Institute (CLSI) recommendations (http://iacld.ir/DL/public/CLSI-2018-M100-S28.pdf). Briefly, drugs were two-fold diluted in MHB and mixed with an equal volume of bacterial suspensions containing approximately 1 × 10^6 CFU/mL in 96-well microliter plate. After 18 h incubation at 37 °C, the MIC values were defined as the lowest concentrations of antibiotics with no visible growth of bacteria. […] Otherwise, 1/4 MIC of the peptide was used in the combination. […] If needed, membrane compounds PG, PE, PC, CL or LPS, or membrane stabilizers MgCl2 or CaCl2, or efflux pumps inhibitor PAβN were added to the broth medium to clarify the effect of other substances on the synergy between peptide and antibiotics. All the tests were performed in triplicate.
# The fractional inhibitory concentration (FIC) indices were calculated using the previously described formula FICI = FICa + FICb = MICac/MICa + MICbc/MICb. The FICI was interpreted according to EUCAST [65] as follows: synergistic, FICI≤0.5; additive, 0.5<FICI≤1; indifferent, 1<FICI<2; antagonistic, FICI ≥2. For the FICI calculations, twice the highest concentration tested was used in the cases where the MIC was not reached.
# [2] = tested on: clinical P. aeruginosa isolates; experiment: microbe, parasite or virus in culture; conditions: Pseudomonas aeruginosa, 18 h, antibiotic alone
# Procedure: The bacterial strains, primers and plasmids used in this study are listed in S5 Table. […] Bacteria were cultured in LB medium or cation-adjusted Muller-Hinton broth (CA-MHB) at 37 °C with agitation at 220 rpm. All the antibiotics and chemical compounds used in this study were purchased from Sigma-Aldrich.
# as §1
# [3] = S3 Table, PAO1, antibiotic + 2 μM D-11
# [4] = S3 Table, PAO1, antibiotic + 4 μM D-11
# [5] = PAO1, peptide + Azithromycin, higher peptide concentration line
# [6] = PAO1, peptide + Azithromycin, lower peptide concentration line
# [7] = PAO1, peptide + Clarithromycin, higher peptide concentration line
# [8] = PAO1, peptide + Clarithromycin, lower peptide concentration line
# [9] = PAO1, peptide + Erythromycin, higher peptide concentration line
# [10] = PAO1, peptide + Erythromycin, lower peptide concentration line
# [11] = PAO1, peptide + Spiramycin, higher peptide concentration line
# [12] = PAO1, peptide + Spiramycin, lower peptide concentration line
# [13] = PAO1, peptide + Telithromycin, higher peptide concentration line
# [14] = PAO1, peptide + Telithromycin, lower peptide concentration line
# [15] = PAO1, peptide + azithromycin, twice the highest concentration used where MIC not reached
# [16] = peptide alone, PAO1, broth microdilution in MHB, 18 h, 37 °C, triplicate
compound,measurement,setting,value
CCO/N=C(\C(=O)N[C@@H]1C(=O)N2C(C(=O)[O-])=C(Sc3nc(-c4cc[n+](C)cc4)cs3)CS[C@H]12)c1nsc(N)n1 [Ceftaroline],FICI,[1]; [3],1.063
same,FICI,[1]; [4],1.125
same,MICac: the MIC for the antibiotic in the combination,"[1]; S3 Table, PAO1, with 2 μM D-11",128/128 μM
same,MICac: the MIC for the antibiotic in the combination,"[1]; S3 Table, PAO1, with 4 μM D-11",128/128 μM
same,MICa: the MIC of antibiotics,"[1]; S3 Table, PAO1",128/128 μM
CC1=C(C(=O)O)N2C(=O)[C@@H](NC(=O)[C@H](N)c3ccccc3)[C@H]2SC1 [Cephalexin],FICI,[1]; [3],1.063
same,FICI,[1]; [4],1.125
CC[C@@H](C)[C@@H](NC(=O)[C@H](N)CCCNC(=N)N)C(=O)N[C@@H](C(=O)N[C@H](CCC(N)=O)C(=O)N[C@H](CCCNC(=N)N)C(=O)N[C@@H](C(=O)N[C@H](CCCNC(=N)N)C(=O)N[C@H](CCCNC(=N)N)C(=O)N[C@H](Cc1c[nH]c2ccccc12)C(=O)N[C@H](CC(C)C)C(=O)N[C@H](CCCNC(=N)N)C(N)=O)[C@H](C)CC)C(C)C [D-11-k(r)] (H-[dR][dI][dV][dQ][dR][dI][dR][dR][dW][dL][dR]-NH2),FICI,[1]; [5],0.156
same,FICI,[1]; [6],0.188
same,FICI,[1]; [7],0.156
same,FICI,[1]; [8],0.125
same,FICI,[1]; [9],0.188
same,FICI,[1]; [10],0.188
same,FICI,[1]; [11],1.125
same,FICI,[1]; [12],1.063
same,FICI,[1]; [13],0.188
same,FICI,[1]; [14],0.188
same,FICI,[1]; [15],0.156
same,MICb: the MIC of the peptide,"[1]; S1 Table, peptide alone, PAO1",64 µM
CC[C@@H](C)[C@@H](NC(=O)[C@@H](CC(C)C)NC(=O)[C@@H](CCCNC(=N)N)NC(=O)[C@@H](Cc1c[nH]c2ccccc12)NC(=O)[C@H](N)CC(C)C)C(=O)N[C@H](CCCNC(=N)N)C(=O)N[C@H](CCCNC(=N)N)C(=O)N[C@H](Cc1ccccc1)C(=O)N[C@H](CC(C)C)C(=O)N[C@H](CCCNC(=N)N)C(=O)N[C@H](CCCNC(=N)N)C(N)=O [D-RW-BP100R] (H-[dL][dW][dR][dL][dI][dR][dR][dF][dL][dR][dR]-NH2),FICI,[1]; [15],1.250
same,MICb: the MIC of the peptide,[1]; [16],4 µM
CC[C@@H](C)[C@@H](NC(=O)[C@@H](CCCNC(=N)N)NC(=O)[C@@H](CCCNC(=N)N)NC(=O)[C@@H](Cc1ccccc1)NC(=O)[C@@H](CC(C)C)NC(=O)[C@@H](CCCNC(=N)N)NC(=O)[C@H](N)CCCNC(=N)N)C(=O)N[C@H](CC(C)C)C(=O)N[C@H](CCCNC(=N)N)C(=O)N[C@H](Cc1c[nH]c2ccccc12)C(=O)N[C@H](CC(C)C)C(N)=O [D-RW-BP100] (H-[dR][dR][dL][dF][dR][dR][dI][dL][dR][dW][dL]-NH2),FICI,[1]; [15],1.250
same,MICb: the MIC of the peptide,[1]; [16],8 µM
CC[C@H](C)[C@H](NC(=O)[C@H](CCCCN)NC(=O)[C@H](CCC(=O)O)NC(=O)[C@H](CCCCN)NC(=O)[C@H](CO)NC(=O)[C@H](CCCCN)NC(=O)[C@H](CCCNC(=N)N)NC(=O)[C@H](Cc1ccccc1)NC(=O)[C@H](Cc1ccccc1)NC(=O)[C@H](CC(=O)O)NC(=O)CNC(=O)[C@H](CC(C)C)NC(=O)[C@@H](N)CC(C)C)C(=O)NCC(=O)N[C@@H](CCCCN)C(=O)N[C@@H](CCC(=O)O)C(=O)N[C@@H](Cc1ccccc1)C(=O)N[C@@H](CCCCN)C(=O)N[C@@H](CCCNC(=N)N)C(=O)N[C@H](C(=O)N[C@H](C(=O)N[C@@H](CCC(N)=O)C(=O)N[C@@H](CCCNC(=N)N)C(=O)N[C@H](C(=O)N[C@@H](CCCCN)C(=O)N[C@@H](CC(=O)O)C(=O)N[C@@H](Cc1ccccc1)C(=O)N[C@@H](CC(C)C)C(=O)N[C@@H](CCCNC(=N)N)C(=O)N[C@@H](CC(N)=O)C(=O)N[C@@H](CC(C)C)C(=O)N[C@H](C(=O)N1CCC[C@H]1C(=O)N[C@@H](CCCNC(=N)N)C(=O)N[C@H](C(=O)N[C@@H](CCC(=O)O)C(=O)N[C@@H](CO)C(=O)O)[C@@H](C)O)C(C)C)[C@@H](C)CC)C(C)C)[C@@H](C)CC [LL-37],FICI,[1]; [15],0.75
Cc1ncc([N+](=O)[O-])n1CCO [Metronidazole],FICI,[1]; [3],1.063
same,FICI,[1]; [4],1.125
Cc1onc(-c2ccccc2)c1C(=O)N[C@@H]1C(=O)N2[C@@H]1SC(C)(C)[C@@H]2C(=O)O [Oxacillin],FICI,[1]; [3],1.063
same,FICI,[1]; [4],1.125
NC(N)=NCCC[C@H](NC(=O)[C@@H](N)Cc1ccccc1)C(=O)Nc1ccc2ccccc2c1 [PAβN] (H-Phe-Arg-βNA),reduction of the MIC of azithromycin by PAβN,"[1]; PAO1, in the absence of D-11",64 fold
same,reduction of the MIC of azithromycin by PAβN,"[1]; PAO1, in the presence of D-11, higher concentration of PAβN",two
N=C(N)c1ccc(OCCCCCOc2ccc(C(=N)N)cc2)cc1 [Pentamidine],FICI,[1]; [3],1.063
same,FICI,[1]; [4],1.125
same,MICac: the MIC for the antibiotic in the combination,"[1]; S3 Table, PAO1, with 2 μM D-11",128/128 μM
same,MICac: the MIC for the antibiotic in the combination,"[1]; S3 Table, PAO1, with 4 μM D-11",128/128 μM
same,MICa: the MIC of antibiotics,"[1]; S3 Table, PAO1",128/128 μM
CC[C@@H](C)[C@@H](NC(=O)[C@@H](CCCCN)NC(=O)[C@@H](CCCCN)NC(=O)[C@@H](Cc1c[nH]c2ccccc12)NC(=O)[C@@H](CC(C)C)NC(=O)[C@H](N)CCCNC(=N)N)C(=O)N[C@H](CCCNC(=N)N)C(=O)N[C@H](CCC(N)=O)C(=O)N[C@@H](C(=O)N[C@@H](C(=O)N[C@H](CCCNC(=N)N)C(=O)N[C@H](CCCCN)C(N)=O)[C@H](C)CC)C(C)C [Peptide D-11R] (H-[dR][dL][dW][dK][dK][dI][dR][dQ][dV][dI][dR][dK]-NH2),MICb: the MIC of the peptide,"[1]; PAO1, 18 h",32 µM
CN(C)[C@@H]1C(O)=C(C(N)=O)C(=O)[C@@]2(O)C(O)=C3C(=O)c4c(O)cccc4[C@@](C)(O)[C@H]3C[C@@H]12 [Tetracycline],MIC,"[2]; read-out: Antibiotic sensibility (MIC) of clinical P. aeruginosa isolate AUMC-Pa-2, strain AUMC-Pa-2",64 µM
same,MIC,"[2]; read-out: Antibiotic sensibility (MIC) of clinical P. aeruginosa isolate AUMC-Pa-3, strain AUMC-Pa-3",64 µM
same,MIC,"[2]; read-out: Antibiotic sensibility (MIC) of clinical P. aeruginosa isolate AUMC-Pa-5, strain AUMC-Pa-5",64 µM
same,MIC,"[2]; read-out: Antibiotic sensibility (MIC) of clinical P. aeruginosa isolate AUMC-Pa-6, strain AUMC-Pa-6",64 µM
same,MIC,"[2]; read-out: Antibiotic sensibility (MIC) of clinical P. aeruginosa isolate HM-214, strain HM-214",64 µM
same,MIC,"[2]; read-out: Antibiotic sensibility (MIC) of clinical P. aeruginosa isolate NR-31040, strain NR-31040",64 µM
same,MIC,"[2]; read-out: Antibiotic sensibility (MIC) of clinical P. aeruginosa isolate NR-31041, strain NR-31041",64 µM
GIGKHVGKALKGLKGLLKGLGEC [ADP-1],MICb: the MIC of the peptide,[1]; [16],16 µM
GNNRPVYIPQPRPPHPRL [Api1b],FICI,[1]; [15],1.125
same,MICb: the MIC of the peptide,[1]; [16],> 32 µM
KHVGKALKGLK [ADP-1b],MICb: the MIC of the peptide,"[1]; PAO1, 18 h",> 32 µM
KIAKVALKALK [PEP10],FICI,[1]; [15],1.125
same,MICb: the MIC of the peptide,[1]; [16],> 32 µM
KRIVQRIKKWLR-NH2 [KR-12-a2],MIC of the peptide,"[1]; PAO1, 18 h",≥ 32 µM
same,MICb: the MIC of the peptide,"[1]; PAO1, 18 h",32 µM
LKGLKGLLKGL [ADP-1c],MICb: the MIC of the peptide,"[1]; PAO1, 18 h",> 32 µM
LKGLKGLLKGLGEC [ADP-1a],MICb: the MIC of the peptide,"[1]; PAO1, 18 h",> 32 µM
NGVQPKYK [PEP9],MICb: the MIC of the peptide,"[1]; PAO1, 18 h",> 32 µM
RIVQRIKKWLR-NH2 [Peptide L-11],MIC of the peptide,"[1]; PAO1, 18 h",≥ 32 µM
same,MICb: the MIC of the peptide,"[1]; PAO1, 18 h",32 µM
RIVQWIKKWLR-NH2 [Peptide L-11-R5W],FICI,[1]; [15],1.250
same,MICb: the MIC of the peptide,[1]; [16],4 µM
RIWVIWRR-NH2 [Bac8c],FICI,[1]; [15],1.250
same,MICb: the MIC of the peptide,[1]; [16],4 µM
RLLFRKIRRLKR [EC5],FICI,[1]; [5],<0.125
same,FICI,[1]; [6],<0.281
same,FICI,[1]; [7],<0.313
same,FICI,[1]; [8],<0.281
same,FICI,[1]; [9],<0.313
same,FICI,[1]; [10],<0.281
same,FICI,[1]; [11],1.063
same,FICI,[1]; [12],1.031
same,FICI,[1]; [13],<0.313
same,FICI,[1]; [14],<0.531
same,FICI,[1]; [15],0.188
same,MICb: the MIC of the peptide,"[1]; S1 Table, peptide alone, PAO1",> 128 µM
same,MIC of the peptide,"[1]; peptide alone, PAO1",≥ 32 µM
same,MICb: the MIC of the peptide,[1]; [16],> 32 µM
RRLFRRILRWL-NH2 [RW-BP100],FICI,[1]; [15],1.250
same,MICb: the MIC of the peptide,[1]; [16],8 µM
VDKGSYLPRPTPPRPIYNRN-NH2 [Pyrrhocoricin],FICI,[1]; [15],1.125
same,MICb: the MIC of the peptide,[1]; [16],> 32 µM
VDKPPYLPRPRPPRRIYNR-NH2 [Oncocin],FICI,[1]; [15],1.125
same,MICb: the MIC of the peptide,[1]; [16],> 32 µM
